Measurements as given in US5631257A, “Benzoxazole derivatives” (Meiji Seika Kaisha, Ltd., priority 1993, dated 1997).
Read-outs that look alike come from different tables or passages of the source.

What was measured:
[1] = molecular target: T1, 5-HT3 receptor (Mus musculus, UniProt P23979); assay: 5-HT3 receptor binding affinity (inhibition of [^3 H]-GR65630 binding); details: membrane fraction from rat N1E-115 cells
T1 construct: membrane fraction prepared from rat N1E-115 cells; endogenous in cells; host or cells: N1E-115 cells, membrane fraction
T1 sequence (P23979 24-483 isoform P23979-2 limits assumed): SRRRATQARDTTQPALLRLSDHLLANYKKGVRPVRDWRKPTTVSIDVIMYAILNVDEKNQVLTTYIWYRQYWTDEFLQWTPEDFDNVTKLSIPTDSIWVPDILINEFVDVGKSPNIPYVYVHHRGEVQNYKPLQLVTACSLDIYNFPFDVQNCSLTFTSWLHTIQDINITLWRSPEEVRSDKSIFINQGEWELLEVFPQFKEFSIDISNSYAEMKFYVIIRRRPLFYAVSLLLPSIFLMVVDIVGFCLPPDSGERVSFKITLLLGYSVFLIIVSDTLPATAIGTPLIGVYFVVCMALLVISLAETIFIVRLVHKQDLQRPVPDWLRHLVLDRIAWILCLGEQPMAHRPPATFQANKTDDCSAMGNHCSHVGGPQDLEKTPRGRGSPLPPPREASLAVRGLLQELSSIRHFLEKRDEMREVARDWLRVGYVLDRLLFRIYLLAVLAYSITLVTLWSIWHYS
Excerpt: Using a membrane fraction prepared from rat N1E-115 cells in accordance with the procedure of Lummis et al. (European Journal of Pharmacology, 189, 223-227, 1990), effects of the inventive compounds to inhibit binding of [^3 H]-GR65630 which was radioligand 5-HT3 antagonist to 5-HT3 receptor were examined, with the results shown in Table 1.

[2] = test system: 5-HT3 receptor; assay: 5-HT3 receptor antagonism (inhibition of 5-HT-induced bradycardia in anesthetized mice); format: in vivo; details: 30 minutes before 5-HT 0.25 mg/kg i.v.
Experimental: In accordance with the procedure of Saxena et al. (Arch. Int. Pharmacodyn.,277, 235-252, 1985), each compound was dissolved in distilled water for injection to give different concentration and was administered intraperitoneally to mice which had been anesthetized with pentobarbital (3 animals per group), and ratio of inhibition of bradycardia induced by 5-HT administration (0.25 mg/kg, i.v.) was examined 30 minutes thereafter.

[3] = test system: cisplatin-treated dogs; assay: Antiemetic effect in cisplatin-treated dogs; format: in vivo; details: 0.1 × 2 mg/kg i.v., 30 minutes before and 2 hours after cisplatin 3 mg/kg i.v.; observed over 6 hours; control 13.5
Experimental: Each of test dogs (2 animals per group) after 16 hours of fasting was fed with 200 g of a solid food, and cisplatin was administered to the animal 30 minutes thereafter by intravenous injection with a dose of 3 mg/kg. The test compound was dissolved in distilled water for injection and was administered by intravenous injection 30 minutes before and 2 hours after the cisplatin administration, and frequency and duration of emesis were observed over 6 hours.

[4] = 10^-7 M, read-out: Binding inhibitory ratio of [^3 H]-GR65630 at 10^-7 M
[5] = read-out: Binding inhibitory ratio of [^3 H]-GR65630 at 10^-7 M, 10^-7 M

inhibition at 0.1 µM [1, 4] | SMILES | also measured
– | C[N+]1(C)CCN(c2nc3ccccc3o2)CC1 [Example 2, 1,1-Dimethyl-4-(benzoxazol-2-yl)piperazinium iodide] | inhibition at 0.1 µM [1, 5]: 45.5%
– | C=CC[N+]1(C)CCN(c2nc3ccccc3o2)CC1 [Example 4, 1-Allyl-1-methyl-4-(benzoxazol-2-yl)piperazinium chloride] | inhibition at 0.1 µM [1, 5]: 48%
78% | C[N+]1(CCO)CCN(c2nc3ccccc3o2)CC1.[I-] [Example 5, 1-(2-Hydroxyethyl)-1-methyl-4-(benzoxazol-2-yl)piperazinium iodide] | Inhibitory ratio (bradycardia induced by 5-HT) ([2]; 0.3 mg/kg i.p.): 61%
97.3% | CN1CCCN(c2nc3ccccc3o2)CC1 [Example 13, 2-(4-Methyl-1-homopiperazinyl)benzoxazole] | –
44.4% | C[N+]1(C)CCCN(c2nc3ccccc3o2)CC1 [Example 14, 1,1-Dimethyl-4-(benzoxazol-2-yl)homopiperazinium iodide] | –
46% | C[N+]1(CCO)CCCN(c2nc3ccccc3o2)CC1 (centres unmarked) [Example 16, 1-(2-Hydroxyethyl)-1-methyl-4-(benzoxazol-2-yl)homo-piperazinium iodide] | –
54.3% | OCCN1CCCN(c2nc3ccccc3o2)CC1 [Example 19, 2-[4-(2-Hydroxyethyl)-1-homopiperazinyl]benzoxazole] | –
51.6% | C=CC[N+]1(C)CCN(c2nc3ccc(O)cc3o2)CC1 [Example 22, 1-Allyl-1-1-methyl-4-(6-hydroxybenzoxazol-2-yl)piperazinium iodide] | –

SMILES | inhibition at 0.1 µM [1, 4] | also measured
CN1CCN(c2nc3ccccc3o2)CC1 [Example 1, 2-(4-Methyl-1-piperazinyl)benzoxazole] | 89.4% | Inhibitory ratio (bradycardia induced by 5-HT) ([2]; 3 mg/kg i.p.): 76%
C=CC[N+]1(C)CCN(c2nc3ccccc3o2)CC1.[I-] [Example 3, 1-Allyl-1-methyl-4-(benzoxazol-2-yl)piperazinium iodide] | 52.8% | Inhibitory ratio (bradycardia induced by 5-HT) ([2]; 0.3 mg/kg i.p.): 82%; Frequency of emesis [3]: 0 times
